Values of other authors, collected in US20250231185A1, “Coronavirus T Cell Epitopes, Megapools and Uses Thereof” (La Jolla Institute for Immunology, priority 2021, published 2025).
Where two headings read alike, the source gives them in different places.

Test system: CD8+ T cells
Details: cited from earlier work
[1] = SARS-CoV-2-derived CD8 epitopes, dominant = recognized by 3 or more donors/different studies
[2] = T cell subset (CD4 or CD8) recognizing the SARS-CoV-2-derived epitope
[3] = T cell type (CD4 or CD8) recognizing the SARS-CoV-2 epitope
[4] = SARS-CoV-2 Ag S, T cell type recognizing the epitope
[5] = CD8RE megapool peptides (non-spike SARS-CoV-2 antigens), dominant epitope Yes/No
[6] = CD8R (D) megapool epitopes, dominant = recognized by 3 or more donors/different studies

502 (SPRWYFYYL) [compound 502]
Dominant [1]: Yes (more dominant epitopes are defined by being recognized by 3 or more donors/different studies) | Restriction [2]: CD8

987 (MASLVLARK) [compound 987]
Restriction [3]: CD8

1459 (YEQYIKWPW) [compound 1459]
Restriction [4]: CD8

3045 (HLVDFQVTI) [compound 3045]
Dominant [5]: Yes (more dominant epitopes are defined by being recognized by 3 or more donors/different studies)

2925 (GTGPEAGLPY) [compound 2925]
Dominant [5]: Yes (more dominant epitopes are defined by being recognized by 3 or more donors/different studies)

518 (LALLLLDRL) [compound 518]
Dominant [1]: Yes (more dominant epitopes are defined by being recognized by 3 or more donors/different studies) | Restriction [2]: CD8

557 (FSKQLQQSM) [compound 557]
Dominant [1]: Yes (more dominant epitopes are defined by being recognized by 3 or more donors/different studies) | Restriction [2]: CD8

1302 (GNYNYLYRLF) [compound 1302]
Restriction [4]: CD8

1043 (RPQIGVVREF) [compound 1043]
Restriction [3]: CD8

2958 (MVMCGGSLYV) [compound 2958]
Dominant [5]: Yes (more dominant epitopes are defined by being recognized by 3 or more donors/different studies)

2938 (GMSRIGMEV) [compound 2938]
Dominant [5]: Yes (more dominant epitopes are defined by being recognized by 3 or more donors/different studies)

1815 (IMLIIFWFSL) [compound 1815]
Dominant [6]: Yes (more dominant epitopes are defined by being recognized by 3 or more donors/different studies)

1384 (LPPLLTDEM) [compound 1384]
Restriction [4]: CD8

1344 (YECDIPIGAGI) [compound 1344]
Restriction [4]: CD8

540 (GMEVTPSGTWLTY) [compound 540]
Dominant [1]: Yes (more dominant epitopes are defined by being recognized by 3 or more donors/different studies) | Restriction [2]: CD8

938 (SLLMPILTL) [compound 938]
Restriction [3]: CD8

983 (NMLRIMASL) [compound 983]
Restriction [3]: CD8

564 (IPVAYRKVLL) [compound 564]
Restriction [2]: CD8

514 (VLQLPQGTTL) [compound 514]
Dominant [1]: Yes (more dominant epitopes are defined by being recognized by 3 or more donors/different studies) | Restriction [2]: CD8

1762 (PTDNYITTY) [compound 1762]
Dominant [6]: Yes (more dominant epitopes are defined by being recognized by 3 or more donors/different studies)

695 (KFADDLNQL) [compound 695]
Restriction [2]: CD8

505 (AGLPYGANK) [compound 505]
Restriction [2]: CD8

516 (SQASSRSSSR) [compound 516]
Restriction [2]: CD8

1088 (LPKGIMMNV) [compound 1088]
Restriction [3]: CD8

1016 (WEPEFYEAM) [compound 1016]
Restriction [3]: CD8

1730 (LVLSVNPYV) [compound 1730]
Dominant [6]: Yes (more dominant epitopes are defined by being recognized by 3 or more donors/different studies)

1761 (FGDDTVIEV) [compound 1761]
Dominant [6]: Yes (more dominant epitopes are defined by being recognized by 3 or more donors/different studies)

1060 (KIEELFYSY) [compound 1060]
Restriction [3]: CD8

3044 (YYQLYSTQL) [compound 3044]
Dominant [5]: Yes (more dominant epitopes are defined by being recognized by 3 or more donors/different studies)

3011 (FLLNKEMYL) [compound 3011]
Dominant [5]: Yes (more dominant epitopes are defined by being recognized by 3 or more donors/different studies)

3049 (VFITLCFTLK) [compound 3049]
Dominant [5]: Yes (more dominant epitopes are defined by being recognized by 3 or more donors/different studies)

908 (AWPLIVTAL) [compound 908]
Restriction [3]: CD8

622 (FLTENLLLYI) [compound 622]
Restriction [2]: CD8

1668 (GTITVEELK) [compound 1668]
Dominant [6]: Yes (more dominant epitopes are defined by being recognized by 3 or more donors/different studies)
